Laboratory results reported in patent publication US10730875B2, “Substituted imidazo[1,2-A]pyridin-2-ylamine compounds, and pharmaceutical compositions and methods of use thereof” (JN Therapeutics, priority 2015, dated 2020).

Molecular target: JAK1 (Homo sapiens (Human), UniProt P23458)
Assay: Cellular JAK1 assay: IL-6-mediated STAT3 phosphorylation in TF-1 cells
Type: cell-based
Conditions: IL-6 stimulation, STAT3 phosphorylation at Tyr705 (AlphaLISA), read-out: Inhibitory Activity Against JAK1 IC50
Method: The cellular potency of a compound on JAK1 or JAK2 inhibition is determined by measuring the cytokine-mediated phosphorylation of STAT proteins in TF-1 cells.
Human cytokines of IL-6 (R&D Systems, Cat. No. 206-IL-010/CF) and GM-CSF (R&D Systems, Cat. No. 215-GM-010/CF) are reconstituted at 10 μg/mL in D-PBS containing 0.1% BSA (Sigma, Cat. No. A8577) and human EPO (R&D Systems, Cat. No. 287-TC-500) at 500 U/mL in D-PBS containing 0.1% BSA. TF-1 cells (ATCC, CRL-2003) were grown in RPMI1640 (ATCC, Cat. No. 30-2001) supplemented with 2 ng/mL of recombinant human GM-CSF, 10% FBS (Gibco, Cat. No. 10437-028), and 100 U/mL penicillin-streptomycin (Gibco, Cat. No. 15140-122). The cells were maintained and propagated between 1×10^5 cells/mL to 7.5×10^5 cells/mL. Aliquots of the cells from early passages were preserved for liquid nitrogen storage. Frozen vials of the cells were thawed at 37° C. water bath. The cells were spun to remove freezing medium. The newly revived frozen cells were adapted in culture for 5-7 days before used for compound testing. The cells used in for compound testing were less than 20 subculture passages or 3 months in culture.
To test compounds, the TF-1 cells were harvested at a density of 3 to 7×10^5 cells/mL by centrifugation. After removing the culture medium, the resulting cell pellet was suspended and washed once by centrifugation with HBSS buffer (Gibco, Cat. No. 14025-092) containing 0.1% BSA. The cell pellet was resuspended in HBSS buffer at 7.5×10^6 cells/mL. Four micro-liters of the cells (3×10^4 cells in total) were added to each well of a white 384-well plate (Packard, Cat. No. 6005214).
The compounds were first diluted in dimethylsulfoxide (DMSO) (Sigma, Cat. No. D2650) to generate 9 3-fold diluted dosing concentrations in a 96-well polypropylene plate (Corning, Cat. No. 3365), followed by addition of HBSS buffer for another 125-fold dilution. To the cells, 2 μL of the diluted compounds were added and mixed by tapping the plate several times. The cells were incubated for 2 hrs of treatment. DMSO was used as a control and similarly diluted along and added to the cells.
To assay JAK1 inhibition, 2 μL of IL-6 diluted at 400 ng/mL (4×) in HBSS containing 0.1% BSA was added to the treated cells. The cells were then incubated for 30 min of cytokine treatment and lysed at the end by addition of 2 μL of 5×AlphaLISA SureFire Ultra lysis buffer from Perkin Elmer. The plate was agitated on a plate shaker for 10 min at room temperature. The cellular JAK1 activity was determined by measuring STAT3 phosphorylation at Tyr705 in lysates using the AlphaLISA SureFire Ultra kit (Perkin Elmer, Cat. No. ALSU-PST3-A500). A volume of 5 μL of acceptor mix and donor mix was added sequentially to lysates following the product protocol. The assay signals were recorded on EnVision plate reader (Perkin Elmer) with AlphaScreen optics setting.
The results are summarized in Table 3, where A represents a value no greater than 500 nM, B represents a value greater than 500 nM but no greater than 1 μM, C represents a value greater than 1 μM but no greater than 5 μM, and D represents a value greater than 5 μM.

Sequence of JAK1 (P23458 whole entry): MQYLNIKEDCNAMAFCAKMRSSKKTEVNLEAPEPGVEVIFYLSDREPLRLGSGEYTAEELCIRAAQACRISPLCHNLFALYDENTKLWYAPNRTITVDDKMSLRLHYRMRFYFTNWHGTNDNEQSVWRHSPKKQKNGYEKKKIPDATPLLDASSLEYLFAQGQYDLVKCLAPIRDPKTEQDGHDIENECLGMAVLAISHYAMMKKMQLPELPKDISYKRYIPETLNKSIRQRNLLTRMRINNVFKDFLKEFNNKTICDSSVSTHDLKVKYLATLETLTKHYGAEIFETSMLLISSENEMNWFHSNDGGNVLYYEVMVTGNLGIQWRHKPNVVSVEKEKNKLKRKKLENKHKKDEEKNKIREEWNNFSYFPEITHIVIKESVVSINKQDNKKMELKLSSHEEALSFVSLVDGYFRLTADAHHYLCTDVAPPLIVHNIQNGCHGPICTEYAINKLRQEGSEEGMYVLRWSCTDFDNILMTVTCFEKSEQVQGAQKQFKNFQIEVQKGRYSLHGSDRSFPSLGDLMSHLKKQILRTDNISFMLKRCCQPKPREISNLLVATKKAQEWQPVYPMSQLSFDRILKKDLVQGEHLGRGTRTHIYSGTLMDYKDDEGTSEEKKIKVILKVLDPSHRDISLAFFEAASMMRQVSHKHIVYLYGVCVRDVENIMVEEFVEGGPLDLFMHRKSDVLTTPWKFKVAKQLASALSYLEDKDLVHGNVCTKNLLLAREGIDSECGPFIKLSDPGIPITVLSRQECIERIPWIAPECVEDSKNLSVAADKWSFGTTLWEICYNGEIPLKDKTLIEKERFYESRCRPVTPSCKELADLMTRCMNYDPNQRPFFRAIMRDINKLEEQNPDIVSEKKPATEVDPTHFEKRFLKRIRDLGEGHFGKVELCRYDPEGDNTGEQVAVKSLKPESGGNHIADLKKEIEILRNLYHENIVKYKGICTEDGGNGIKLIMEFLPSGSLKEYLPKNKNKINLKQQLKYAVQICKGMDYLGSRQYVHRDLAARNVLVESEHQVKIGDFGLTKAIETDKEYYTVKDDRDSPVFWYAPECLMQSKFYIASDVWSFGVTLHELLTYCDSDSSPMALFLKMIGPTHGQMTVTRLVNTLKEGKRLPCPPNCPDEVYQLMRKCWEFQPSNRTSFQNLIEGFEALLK

IC50: ≤ 500 nM
Structure (SMILES): O=C(Nc1cn2c(-c3ccc(CN4CCS(=O)(=O)CC4)cc3F)cccc2n1)C1CC1 [Compound 14]
